Source: patent US10507207B2, “Non-nucleosidic inhibitors of reverse transcriptase as antagonists of cell proliferation and inducers of cell differentiation” (ISTITUTO SUPERIORE DI SANITA, priority 2001, dated 2019)

Experiments:
cyclin D1 in NIH/3T3 = test: Western immunoblotting of cyclin D1; assay type: cell-based, murine; conditions: 72 h nevirapine vs non-exposed controls
Source text: (§1) FIG. 3A. Cell cycle analysis in control and nevirapine-exposed cells. […] In the U343 glioma cell line, the cell cycle was separately analysed in the diploid cell fraction (representing about ⅔ of all cells) and in the remaining fraction (about ⅓) which develops aneuploidy. FIG. 3B. […] The filter was reprobed with anti-actin antibody to control equal loading (lower panel).

cyclin D1 in HT-29 = test: Western immunoblotting of cyclin D1; assay type: cell-based, human; conditions: 72 h nevirapine vs non-exposed controls
Source text: as §1

cyclin D1 in MCF-7 = test: Western immunoblotting of cyclin D1; assay type: cell-based, human; conditions: 72 h nevirapine vs non-exposed controls
Source text: as §1

[1] = test system: cyclin D1 in U343 Mg glioma; test: Western immunoblotting of cyclin D1; assay type: cell-based, human; conditions: 72 h nevirapine vs non-exposed controls, data not shown
Source text: as §1

[2] = test system: C2C7 myogenic satellite cells; test: Differentiation of C2C7 myogenic cells (myotube scoring, MHC immunofluorescence); assay type: cell-based, murine; conditions: nevirapine pre-treatment, differentiation medium 48 h, anti-MHC IF
Source text: FIG. 4C, 60× magnification of myotubes in A. FIG. 4D, 60× magnification of myotubes in B. FIG. 4E, 60× magnification of MHC-positive myoblasts in the field in B.
Murine C2C7 myogenic satellite cells, which proliferate as mononucleated myoblasts can be induced to differentiate upon growth factor withdrawal and form multinucleated myotubes that express muscle-specific genes. […] By light-field microscopy scoring (n=300 cells from randomly selected fields), the ratio between multinucleated myotubes (i.e., cells with more than three nuclei) and mono/binucleated cells was about 1:1 in nevirapine-treated compared to 1:2 in untreated samples. Cells monolayers were further analyzed by immunofluorescence (IF) using a polyclonal antibody to myosin heavy chain (MHC), a late marker of muscle differentiation.

HL60 cells [3] = test: Morphological differentiation, Wright-Giemsa staining; assay type: cell-based, human; conditions: five days of nevirapine treatment (400 μM)
HL60 cells [4] = test: Cytofluorimetric analysis of cell surface markers; assay type: cell-based, human; conditions: HL60, NEV 450 μM, 4 days
Source text: (§2) The induction of CD11b is associated with granulocytic differentiation, CD14 is considered a monocytic specific antigen and CD15 is a myelomonocytic antigen. Simultaneous induction of CD14 and CD11b relates to monocytic differentiation. […] In nevirapine-treated NB4 and HL60 cells, a strong induction of expression of CD15, and, to a lesser degree, CD11b and CD14 markers was detected.

NB4 cells = test: Cytofluorimetric analysis of cell surface markers; assay type: cell-based, human; conditions: NB4, NEV 450 μM, 4 days
Source text: as §2

Kasumi-1 cells [5] = test: Growth, viable cell count; assay type: cell-based, human; conditions: Kasumi-1, Nev 350 μM, 4 days
HL60 cells [6] = test: NBT dye reduction assay; assay type: cell-based, human; conditions: HL60, Nev 350 μM, 4 days
Kasumi-1 cells [7] = test: NBT dye reduction assay; assay type: cell-based, human; conditions: Kasumi-1, Nev 350 μM, 4 days
AML #1 = test: NBT dye reduction assay; assay type: cell-based, human; conditions: AML #1, Nev 350 μM, 4 days
[8] = test system: human acute myeloid leukemia (AML) cells; test: NBT dye reduction assay, summary over Table 2; assay type: cell-based; conditions: nevirapine treatment vs control (Table 2)
F9 cells = test: Semi-quantitative RT-PCR of cell cycle regulatory genes; assay type: cell-based, murine; conditions: nevirapine compared to non-exposed F9 cultures
Source text: FIG. 7B: Quantitative variations in gene expression. RT-PCR products hybridized with internal oligonucleotides were quantified by densitometry. […] Dark histograms represent the mean value, and light histograms the standard deviation, from at least three experiments for each gene. […] We examined a set of genes encoding D-type cyclins; growth inhibitors; modulators of apoptosis; and housekeeping proteins.

Morris 3924A hepatoma = test: Morris 3924A rat hepatoma in vivo
Description: Rat strain: ACI/T inbred (about 180 gr)
Tumor: Morris 3924A hepatoma is a fast-growing tumor which develops in inbred ACI/T animals. Three weeks after inoculation the tumor size is about 10 cm^3.
Preparation of tumor cells: hepatoma tumor cells are prepared from the animal about two weeks after inoculation. The tumor is surgically removed from the animal, separated from connective and necrotic tissues and minced in small pieces. Tumor fragments are then suspended in sterile physiological solution and inoculated in the internal site of one thigh using a 20 ml-syringe with a large size needle. Routinely 0.5 ml of cell suspension are injected. The success rate of tumor implantation is nearly 99%.
On the eleventh day, hepatoma cells were inoculated subcutaneously in pre-treated and in three non-treated control rats.
Procedures and Results: Morris hepatoma cells were inoculated in 4 rats ([…]). The same day, treatment with efavirenz was initiated in two of them by injecting 1 mg/rat/day.

[9] = test system: Kasumi-1 cell line and primary blasts from two AML patients; test: Cell cycle in myeloid leukemia cells poorly sensitive to RA; assay type: cell-based, human; conditions: nevirapine treatment, data not shown

Cc1ccnc2c1NC(=O)c1cccnc1N2C1CC1 [nevirapine, 5,11-dihydro-11-cyclopropyl-4-methyl-6H-dipyrido-[3,2-b:2′,3′-e][1,4]diazepin-6-one]
cyclin D1 levels (cyclin D1 in NIH/3T3): substantial decrease | cyclin D1 levels (cyclin D1 in HT-29): substantial decrease | cyclin D1 levels (cyclin D1 in MCF-7): substantial decrease | cyclin D1 levels [1]: substantial decrease | myosin synthesis in isolated myoblasts [2]: already activated | morphology (HL60 cells [3]): myelomonocytic-like morphology was evident | CD11b mean fluorescence intensity (HL60 cells [4]): 16.6 AU | CD14 mean fluorescence intensity (HL60 cells [4]): 45.3 AU | CD15 mean fluorescence intensity (HL60 cells [4]): 1298.1 AU | CD11b mean fluorescence intensity (NB4 cells): 10.1 AU | CD14 mean fluorescence intensity (NB4 cells): 23.1 AU | CD15 mean fluorescence intensity (NB4 cells): 196.3 AU | Viable cells N^0 × 10^5 (Kasumi-1 cells [5]): 4.5 ± 0.9 × 10^5 | NBT+ (%) (HL60 cells [6]): 37.8 ± 2.5% | NBT+ (%) (Kasumi-1 cells [7]): 31.2 ± 1.1% | NBT+ (%) (AML #1): 19.5 ± 0.7% | increase in the number of positive cells in the NBT dye reduction assay [8]: 2.0-3.5 fold | Bcl-2 expression (F9 cells): Up-regulation | Cyclin D3 expression (F9 cells): down-regulated | Rb-2/p130 expression (F9 cells): Up-regulation | cyclin D1 gene down-regulation (F9 cells): 7 fold | expression of housekeeping genes (β-actin, GAPDH) (F9 cells): unaffected | p16^INK4a up-regulation (F9 cells): ~8 fold | p27^Kip1 expression (F9 cells): Up-regulation | p53 expression (F9 cells): unaffected | tumor at the site of injection (Morris 3924A hepatoma; nevirapine 18 mg/rat/day pre-treatment for 11 days, 17 days from inoculation, only one of 3 treated rats, controls 2-4 cm^3): small nodule of a few millimeters | rats in which onset and growth of hepatoma were antagonized (remained permanently healthy) (Morris 3924A hepatoma; nevirapine 18 mg/rat/day pre-treatment for 11 days, untreated 3/3 develop tumor): ⅔ | histology of tumor tissue (Morris 3924A hepatoma; nevirapine-treated rat vs untreated sample): transformed areas are remarkably reduced, and cells present clear apoptotic features | accumulation of cells in the G1 phase of the cell cycle [9]: modest yet constant accumulation
